In US20140360727A1, “REMEDIATION OF ASPHALTENE-INDUCED PLUGGING OF AN OIL-BEARING FORMATION” (SHELL OIL COMPANY, priority 2013, published 2014):
Where two headings read alike, the source gives them in different places.

Legend:
Assay type in all cases: physicochemical
[1] = SARA analysis of bitumen samples extracted from oil sands by each solvent
Protocol: The bitumen samples extracted at 30° C. from each oil sands sample were evaluated by SARA analysis to determine the saturates, aromatics, resins, and asphaltenes composition of the bitumen samples extracted by each solvent.

[2] = Extraction of mined oil sands with solvents (cyclic contact and drain); settings: 10 C and 30 C; FIGS. 4 and 5 and Table 1
Protocol: Each oil sands sample was weighed and placed in a cellulose extraction thimble that was placed on a porous polyethylene support disk in a jacketed glass cylinder with a drip rate control valve. Each oil sands sample was then extracted with a selected solvent at a selected temperature (10° C. or 30° C.) in a cyclic contact and drain experiment, where the contact time ranged from 15 to 60 minutes. Fresh contacting solvent was applied and the cyclic extraction repeated until the fluid drained from the apparatus became pale brown in color.
The extracted fluids were stripped of solvent using a rotary evaporator and thereafter vacuum dried to remove residual solvent. […] The residual solids and extraction thimble were air dried, weighed, and then vacuum dried.

[3] = Time required to entirely dissolve naturally occurring tar mat material; settings: DMS versus A150, both experiments
Protocol: Two experiments were conducted on a naturally occurring tar mat material recovered from an oil-bearing formation to compare the rate of dissolution of the tar mat material using dimethyl sulfide and A150, a commercially available solvent comprised of a mixture of aromatic hydrocarbons that is commonly used to dissolve tar mats. A naturally occurring tar mat material recovered from an oil-bearing formation at a depth of 4690 meters and at a formation temperature of 50° C. was utilized as the tar mat material for the comparison.
(§1) In the first experiment, two samples of DMS solvent and two samples of A150 solvent were individually mixed with the tar mat material at ambient temperature and pressure, where the volume (ml) to weight (g) ratio of each solvent sample to the tar mat material was approximately 100:1. The length of time required to entirely dissolve the tar mat material was measured and recorded.
as §1, with “second” for “first”, “four” for “two”, “10:1.” for “100:1.”

Row | Recovery of bitumen from oil sand material versus best known fluids [2] | Effectiveness for extraction of asphaltenes from oil sands (SARA) ([1]; bitumen extracted at 30 C) | Rate of tar mat dissolution relative to A150 [3] | Compound | Aromatics, oil composition of extracted bitumen [1] [Normalized Weight Percent] | Asphaltenes, oil composition of extracted bitumen [1] [Normalized Weight Percent] | Resins, oil composition of extracted bitumen [1] [Normalized Weight Percent] | Saturates, oil composition of extracted bitumen ([1]; bitumen extracted at 30 C) [Normalized Weight Percent] | Aromatics, oil composition of extracted bitumen ([1]; bitumen extracted at 30 C) [Normalized Weight Percent] | Asphaltenes, oil composition of extracted bitumen ([1]; bitumen extracted at 30 C) [Normalized Weight Percent] | Resins, oil composition of extracted bitumen ([1]; bitumen extracted at 30 C) [Normalized Weight Percent]
1 | – | – | – | ClC(Cl)Cl [Chloroform, chloroform] | 43.56 | 14.86 | 25.94 | 15.64 | – | – | –
2 | comparable | excellent miscibility properties | not less than 1.4 times | CSC [Dimethyl Sulfide, dimethyl sulfide] | – | – | – | 15.49 | 47.07 | 13.19 | 24.25
3 | – | – | – | Cc1ccccc1C [o-Xylene, o-xylene] | – | – | – | 17.37 | 46.39 | 13.96 | 22.28
4 | – | – | – | C1CCOC1 [Tetrahydrofuran, tetrahydrofuran] | – | – | – | 16.11 | 45.24 | 14.27 | 24.38
5 | – | – | – | S=C=S [Carbon Disulfide, carbon disulfide] | – | – | – | 18.77 | 41.89 | 13.85 | 25.49
